Laboratory results as given in patent US7919680B2, “Nucleic acids encoding anthelmintic agents and plants made therefrom” (Divergence, Inc., priority 2004, dated 2011).

Columns and labels:
P. scribneri = assay: Nematicidal activity of fatty acid methyl ester emulsions, nematode spectrum (Table 6); assay type: in vivo, Pratylenchus scribneri; details: P. scribneri mixed stage
Experimental: (§1) Briefly, the indicated fatty acid emulsions were added to nematodes in wells of a 24-well plate and rapidly mixed by swirling. […] Results shown are mean % values obtained from multiple independent experiments
(§2) The Caenorhabditis elegans were mixed stage populations. Similar effects were seen on several other free-living nematode species. The Parastrongyloides trichosuri (parasite of Australian bushtail possum) were dauer-like infective 3rd stage larva. Similar effects are also seen against free-living stages. The Meloidogyne incognita and Meloidogyne javanica (root knot nematode) were 2nd stage juveniles (dauer-like infective stage). The Heterodera glycines (soybean cyst nematode) were 2nd stage juveniles (dauer-like infective stage). Finally, the Pratylenchus scribneri (corn lesion nematode) were mixed stage populations.

P. trichosuri = assay: as above; assay type: in vivo, Parastrongyloides trichosuri; details: P. trichosuri infective 3rd stage larva
Experimental: as §1, §2

H. glycines = assay: as above; assay type: in vivo, Heterodera glycines; details: H. glycines 2nd stage juveniles, head 24 hr, b171 48 hours
Experimental: as §1, §2

M. javanica [1] = assay: Nematicidal activity of fatty acid methyl ester emulsions against root knot nematode J2 larvae (Table 5); assay type: in vivo; details: 0.1% emulsion; 48 hours incubation, counted about 24 hours after transfer to plates
Experimental: (§3) M. incognita and M. javanica were prepared from tomato roots. The roots were bleached and the debris was separated from the J2 larvae and eggs by filtration followed by sucrose density gradient centrifugation. Eggs were hatched over 4 days at 15° C. and the J2 larvae were collected by passage though a filter, followed by centrifugation.
(§4) Nematodes and emulsions were incubated with shaking at room temperature for 48 hours. The contents of each well were transferred to a small spot on individual NGM plates lacking bacteria. About 24 hours after the transfer to plates, worms on and off the inoculation spot were counted as not viable or viable, respectively. Worms were considered viable if they had crawled away from the inoculation spot, or if they were moving. Worms were considered non-viable if they remained at the inoculation spot.

M. incognita [2] = assay: as above; assay type: in vivo; details: 0.1% emulsion; 48 hours incubation, counted about 24 hours after transfer to plates
Experimental: as §3, §4

C. elegans [3] = assay: Nematicidal activity of fatty acid methyl ester emulsions, nematode spectrum (Table 6); assay type: in vivo, Caenorhabditis elegans; details: C. elegans mixed stage
Experimental: as §1, §2

M. javanica [4] = assay: as above; assay type: in vivo, Meloidogyne javanica; details: M. javanica 2nd stage juveniles, head 24 hr, b171 48 hours
Experimental: as §1, §2

C. elegans [5] = assay: Nematicidal activity of fatty acid methyl ester emulsions against C. elegans (Table 2)
M. incognita [6] = assay: Nematicidal activity of fatty acid methyl ester emulsions, nematode spectrum (Table 6); assay type: in vivo, Meloidogyne incognita; details: M. incognita 2nd stage juveniles, head 24 hr, b171 48 hours
Experimental: as §1, §2

[7] = tested on: isolated intestinal epithelial cells; details: Gaginella et al. (1977); cited from earlier work
C. elegans [8] = assay: Nematicidal activity of methyl ester, salt and free fatty acid emulsions vs. C. elegans N2s (Table 3); assay type: in vivo, Caenorhabditis elegans
From the text: Nematicidal Activity of Single Fatty Acid Methyl Ester, Salt and Free Fatty Acid Emulsions Against Caenorhabditis elegans […] and Dauers

C. elegans dauers = assay: Nematicidal activity of methyl ester, salt and free fatty acid emulsions vs. C. elegans dauers (Table 4); assay type: in vivo, Caenorhabditis elegans
[9] = tested on: everted hamster jejunal and ileal segments; details: Gaginella et al. (1975); cited from earlier work
tomato seedlings = assay: Phytotoxicity evaluation of fatty acid methyl esters on tomato seedlings; assay type: in vivo; details: 250 μl of 1% emulsion at stem-media interface of two-week seedlings
Experimental: Sterilized tomato seeds were germinated in magenta jars containing Gamborg's agar media. After two weeks of growth, seedlings were treated with 250 μl of 1% fatty acid methyl ester emulsion (nonanoic acid, ricinoleic acid, ricinelaidic acid, oleic acid, or a control emulsion lacking any fatty acid), applied directly to the stem-media interface. Tomato seedlings were scored at various times after application of emulsions.

[10] = tested on: wide spectrum of divergent nematode genera; assay: Summary of Table 6: free-living, animal parasitic and plant parasitic nematodes; assay type: in vivo; details: for nematicidal activity: concentrations of 0.1% and 0.01%
Experimental: as §1

L4 and adult C. elegans = details: Stadler and coworkers; cited from earlier work
Panagrellus redivivus = details: 100 μg/mL over 24 hours; Momin & Nair (2002); cited from earlier work
Caenorhabditis elegans = details: 100 μg/mL over 24 hours; Momin & Nair (2002); cited from earlier work

Row | Structure (SMILES) | % Worm Death (24 hr) (P. scribneri; 0.01% solution) | % Worm Death (24 hr) (P. scribneri; 0.1% solution) | % Worm Death (24 hr) (P. trichosuri; 0.01% solution) | % Worm Death (24 hr) (P. trichosuri; 0.1% solution) | % Worm Death (24 hr) (H. glycines; 0.001% solution) | % Worm Death (24 hr) (H. glycines; 0.01% solution) | % Worm Death (24 hr) (H. glycines; 0.1% solution) | M. javanica (% not viable) (M. javanica [1]) | % Worm Death (24 hr) (C. elegans [3]; 0.001% solution) | % Worm Death (24 hr) (C. elegans [3]; 0.01% solution) | % Worm Death (24 hr) (C. elegans [3]; 0.1% solution) | % Worm Death (24 hr) (M. javanica [4]; 0.01% solution) | % Worm Death (24 hr) (M. javanica [4]; 0.1% solution) | % Worm Death (24 hr) (M. incognita [6]; 0.01% solution) | % Worm Death (24 hr) (M. incognita [6]; 0.1% solution) | worm death (C. elegans [8]; 0.001% emulsion) | worm death (C. elegans [8]; 0.01% emulsion) | worm death (C. elegans [8]; 0.1% emulsion) | worm death (C. elegans dauers; 0.01% emulsion) | worm death (C. elegans dauers; 0.1% emulsion) | further results
1 | CCCCCC1OC1C/C=C\CCCCCCCC(=O)OC (stereo in doubt) [Vernolic Acid (C18-methyl ester), vernolic acid methyl ester] | <20% | <20% | ~90% | ~95% | 18% | 20% | 30% | 90% | 30% | 50% | 80% | 60% | 90% | 73% | 98% | – | – | – | – | – | M. incognita (% not viable) (M. incognita [2]): 100%; Percentage of Worm Death 1 hr (C. elegans [5]; 0.003% emulsion): 20%; Percentage of Worm Death 6 hr (C. elegans [5]; 0.003% emulsion): 20%; Percentage of Worm Death 24 hr (C. elegans [5]; 0.003% emulsion): 20%; Percentage of Worm Death 1 hr (C. elegans [5]; 0.1% emulsion): 65%; Percentage of Worm Death 6 hr (C. elegans [5]; 0.1% emulsion): 65%; Percentage of Worm Death 24 hr (C. elegans [5]; 0.1% emulsion): 75%
2 | CCCCCC[C@@H](O)C/C=C\CCCCCCCC(=O)O [R free acid, ricinoleic acid] | – | – | – | – | – | – | – | – | – | – | – | – | – | – | – | <5% | 50% | 95% | 75% | 90% | cytotoxicity [7]: cytotoxic; effect on water and electrolyte absorption [9]: inhibitory effect
3 | CCCCCC[C@@H](O)C/C=C/CCCCCCCC(=O)OC [Re ME, ricinelaidic acid methyl ester] | ~40% | ~70% | 100% | 100% | 100% | 100% | 100% | – | 75% | 100% | 100% | 100% | 100% | ~99% | ~99% | 80% | 100% | 100% | 100% | 100% | phytotoxic effects on tomato seedlings (tomato seedlings): low phytotoxicity; nematicidal activity [10]: strongly nematicidal; breadth of nematicidal activity ([10]; summary of Table 6): favorable nematicidal activity against a wide spectrum of divergent nematode genera; % Worm Death (24 hr) (M. javanica [4]; 0.001% solution): ~60%; % Worm Death (24 hr) (M. incognita [6]; 0.001% solution): 97%
4 | CCCCCC[C@@H](O)C/C=C\CCCCCCCC(=O)OC [Ricinoleic Acid (C18-methyl ester), ricinoleic acid methyl ester] | <20% | <20% | ~60% | ~50% | ~40% | ~60% | ~60% | 60% | 30% | 50% | 90% | 5% | 60% | 83% | 95% | 20% | 40% | 90% | 30% | 70% | phytotoxic effects on tomato seedlings (tomato seedlings): low phytotoxicity; M. incognita (% not viable) (M. incognita [2]): 95%; nematicidal activity [10]: strongly nematicidal; Percentage of Worm Death 1 hr (C. elegans [5]; 0.003% emulsion): 40%; Percentage of Worm Death 6 hr (C. elegans [5]; 0.003% emulsion): 40%; Percentage of Worm Death 24 hr (C. elegans [5]; 0.003% emulsion): 40%; Percentage of Worm Death 1 hr (C. elegans [5]; 0.1% emulsion): 80%; Percentage of Worm Death 6 hr (C. elegans [5]; 0.1% emulsion): 80%; Percentage of Worm Death 24 hr (C. elegans [5]; 0.1% emulsion): 90%; nematicidal activity (C. elegans [5]; concentration of 0.1%): strongly nematicidal; time before strong killing effects are apparent (C. elegans [5]; emulsion, Table 2): up to 30 minutes; effect on water and electrolyte absorption [9]: ineffective
5 | CCCCCCCC/C=C\CCCCCCCC(=O)O [oleic acid] | – | – | – | – | – | – | – | – | – | – | – | – | – | – | – | – | – | – | – | – | LD50 (L4 and adult C. elegans): 25 µg/mL; LD90 (L4 and adult C. elegans): 100 µg/mL; nematicidal activity (Panagrellus redivivus): not nematicidal; nematicidal activity (Caenorhabditis elegans): not nematicidal
